Laboratory results published in ChEMBL document CHEMBL1121871, “Azaprostaglandin analogues. Synthesis and biological properties of 11-azaprostaglandin derivatives” (1981).
Activity calls are given as the source filed them. No cut-off for these calls is given here.

Legend:
[1] = organism: Rattus norvegicus; assay: Compound was tested for its activity to stimulate rat uterus at concentration of 2-10 e-6 g/mL; Showed very little stimulation; type: functional, organism-based
[2] = organism: Cavia porcellus; assay: Tested for activity of the 250 ng/ml compound to inhibit ADP-induced aggregation in guinea pig platelet rich plasma; Inactive; type: functional, organism-based
[3] = Compound was evaluated for the potency ratio in anesthetized rats; type: functional
[4] = organism: Rattus norvegicus; assay: Tested for enhancement against rythemice contractions and tone of rat portal vein at concentrations ranging from 2*10e-6-1*10e-5 g/mL; Active; type: functional, organism-based

## CCCCC[C@@H](O)/C=C/[C@H]1NC(=O)C[C@@H]1CCCCCCC(=O)O
[1]
  Activity: very little stimulation
[2]
  inhibition: inactive
[3]
  Potency Ratio: 0.13
[4]
  Enhancement: Active
